This is an account of results in ChEMBL document CHEMBL4418260, “Cyclopentanecarboxamide derivatives, medicaments containing such compounds and their use” (2017).

The IC50 is the point on the concentration scale where inhibition reaches its midpoint.

Common to all, as to assay type: cell-based
Assay [1] addresses Fatty acid synthase (Mus musculus) (UniProt P19096). Briefly: Inhibition of FAS in mouse N42 cells assessed as [14C]-acetate incorporation at 10 uM preincubated for 60 mins followed by [14C]-acetate addition and measured after 4 hrs by beta scintillation counting method relative to control. Details: scale not given: the % may be the effect or the level left.
For assay [2], the target named is Fatty acid synthase (Homo sapiens, UniProt P49327). Put plainly: Inhibition of human HeLa cell derived FAS preincubated for 60 mins in presence of acetyl coenzyme A and NADPH followed by malonyl coenzyme A addition and measured after 10 mins by fluorescence method.
Sequence of Fatty acid synthase (P49327 whole entry): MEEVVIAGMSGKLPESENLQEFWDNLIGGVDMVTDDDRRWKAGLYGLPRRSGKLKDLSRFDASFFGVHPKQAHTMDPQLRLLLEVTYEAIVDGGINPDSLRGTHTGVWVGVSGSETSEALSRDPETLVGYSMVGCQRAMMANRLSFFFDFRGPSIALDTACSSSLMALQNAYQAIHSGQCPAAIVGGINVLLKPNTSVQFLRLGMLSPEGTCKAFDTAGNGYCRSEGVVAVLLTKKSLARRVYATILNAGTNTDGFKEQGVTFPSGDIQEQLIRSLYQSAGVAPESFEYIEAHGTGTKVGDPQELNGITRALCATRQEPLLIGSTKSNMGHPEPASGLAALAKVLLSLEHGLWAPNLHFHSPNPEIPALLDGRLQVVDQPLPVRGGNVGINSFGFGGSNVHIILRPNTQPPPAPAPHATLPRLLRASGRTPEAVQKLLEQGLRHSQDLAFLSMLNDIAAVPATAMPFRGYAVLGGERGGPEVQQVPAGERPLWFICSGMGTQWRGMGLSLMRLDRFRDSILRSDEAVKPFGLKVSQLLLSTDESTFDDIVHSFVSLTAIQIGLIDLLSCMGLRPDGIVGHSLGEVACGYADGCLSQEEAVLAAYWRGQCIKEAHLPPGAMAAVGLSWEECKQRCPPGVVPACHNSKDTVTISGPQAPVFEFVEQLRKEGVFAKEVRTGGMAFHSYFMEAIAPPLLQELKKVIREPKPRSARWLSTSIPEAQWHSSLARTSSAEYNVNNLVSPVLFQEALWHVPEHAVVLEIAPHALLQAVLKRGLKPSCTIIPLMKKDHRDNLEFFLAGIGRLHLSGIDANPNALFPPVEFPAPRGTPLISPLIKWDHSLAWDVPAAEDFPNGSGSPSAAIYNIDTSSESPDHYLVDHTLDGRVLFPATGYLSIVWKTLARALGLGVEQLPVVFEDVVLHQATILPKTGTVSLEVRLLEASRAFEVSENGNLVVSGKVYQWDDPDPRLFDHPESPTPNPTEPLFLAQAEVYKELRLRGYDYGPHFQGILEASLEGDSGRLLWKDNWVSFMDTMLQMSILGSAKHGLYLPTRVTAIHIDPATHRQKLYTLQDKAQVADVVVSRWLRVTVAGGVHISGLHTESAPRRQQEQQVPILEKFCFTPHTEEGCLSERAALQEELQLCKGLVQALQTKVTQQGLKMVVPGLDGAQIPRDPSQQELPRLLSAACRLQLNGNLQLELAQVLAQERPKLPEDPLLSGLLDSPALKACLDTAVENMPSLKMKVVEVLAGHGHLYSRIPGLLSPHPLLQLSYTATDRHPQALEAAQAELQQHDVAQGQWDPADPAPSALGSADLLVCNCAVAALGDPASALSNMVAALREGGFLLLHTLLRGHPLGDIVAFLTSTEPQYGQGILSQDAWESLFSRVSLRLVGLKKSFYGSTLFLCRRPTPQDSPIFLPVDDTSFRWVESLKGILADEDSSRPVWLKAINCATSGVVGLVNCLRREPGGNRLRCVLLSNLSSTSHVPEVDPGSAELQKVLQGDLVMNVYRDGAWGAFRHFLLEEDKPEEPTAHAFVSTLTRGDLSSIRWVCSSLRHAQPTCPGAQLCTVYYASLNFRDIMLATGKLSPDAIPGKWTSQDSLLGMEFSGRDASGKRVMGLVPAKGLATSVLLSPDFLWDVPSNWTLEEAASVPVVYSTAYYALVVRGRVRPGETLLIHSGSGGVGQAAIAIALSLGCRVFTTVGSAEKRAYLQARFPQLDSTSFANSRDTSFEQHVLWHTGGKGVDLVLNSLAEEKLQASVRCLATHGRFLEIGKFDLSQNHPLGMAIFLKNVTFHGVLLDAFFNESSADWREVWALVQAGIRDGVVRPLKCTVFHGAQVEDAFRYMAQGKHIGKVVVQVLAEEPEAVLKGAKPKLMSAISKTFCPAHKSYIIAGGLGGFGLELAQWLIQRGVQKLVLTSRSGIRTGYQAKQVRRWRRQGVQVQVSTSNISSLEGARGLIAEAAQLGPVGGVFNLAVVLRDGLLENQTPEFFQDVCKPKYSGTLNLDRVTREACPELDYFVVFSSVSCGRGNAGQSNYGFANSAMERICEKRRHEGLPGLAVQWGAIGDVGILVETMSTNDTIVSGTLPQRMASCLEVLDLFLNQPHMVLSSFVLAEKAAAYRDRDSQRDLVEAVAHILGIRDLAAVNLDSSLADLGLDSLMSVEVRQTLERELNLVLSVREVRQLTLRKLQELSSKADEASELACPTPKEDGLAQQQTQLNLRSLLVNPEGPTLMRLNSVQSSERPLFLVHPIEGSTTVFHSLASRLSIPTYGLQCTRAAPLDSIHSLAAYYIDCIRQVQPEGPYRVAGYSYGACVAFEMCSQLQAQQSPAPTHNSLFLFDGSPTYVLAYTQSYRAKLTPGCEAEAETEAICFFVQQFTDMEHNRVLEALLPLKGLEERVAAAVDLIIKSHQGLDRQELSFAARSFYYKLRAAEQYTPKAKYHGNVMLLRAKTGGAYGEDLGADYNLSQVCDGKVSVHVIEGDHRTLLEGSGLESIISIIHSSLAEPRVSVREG
The target in assay [3] is Fatty acid synthase (Mus musculus) (UniProt P19096). Put plainly: Inhibition of FAS in mouse N42 cells assessed as [14C]-acetate incorporation at 100 uM preincubated for 60 mins followed by [14C]-acetate addition and measured after 4 hrs by beta scintillation counting method relative to control. Set-up: scale not given: the % may be the effect or the level left.
Sequence of Fatty acid synthase (Mus musculus) (P19096 whole entry): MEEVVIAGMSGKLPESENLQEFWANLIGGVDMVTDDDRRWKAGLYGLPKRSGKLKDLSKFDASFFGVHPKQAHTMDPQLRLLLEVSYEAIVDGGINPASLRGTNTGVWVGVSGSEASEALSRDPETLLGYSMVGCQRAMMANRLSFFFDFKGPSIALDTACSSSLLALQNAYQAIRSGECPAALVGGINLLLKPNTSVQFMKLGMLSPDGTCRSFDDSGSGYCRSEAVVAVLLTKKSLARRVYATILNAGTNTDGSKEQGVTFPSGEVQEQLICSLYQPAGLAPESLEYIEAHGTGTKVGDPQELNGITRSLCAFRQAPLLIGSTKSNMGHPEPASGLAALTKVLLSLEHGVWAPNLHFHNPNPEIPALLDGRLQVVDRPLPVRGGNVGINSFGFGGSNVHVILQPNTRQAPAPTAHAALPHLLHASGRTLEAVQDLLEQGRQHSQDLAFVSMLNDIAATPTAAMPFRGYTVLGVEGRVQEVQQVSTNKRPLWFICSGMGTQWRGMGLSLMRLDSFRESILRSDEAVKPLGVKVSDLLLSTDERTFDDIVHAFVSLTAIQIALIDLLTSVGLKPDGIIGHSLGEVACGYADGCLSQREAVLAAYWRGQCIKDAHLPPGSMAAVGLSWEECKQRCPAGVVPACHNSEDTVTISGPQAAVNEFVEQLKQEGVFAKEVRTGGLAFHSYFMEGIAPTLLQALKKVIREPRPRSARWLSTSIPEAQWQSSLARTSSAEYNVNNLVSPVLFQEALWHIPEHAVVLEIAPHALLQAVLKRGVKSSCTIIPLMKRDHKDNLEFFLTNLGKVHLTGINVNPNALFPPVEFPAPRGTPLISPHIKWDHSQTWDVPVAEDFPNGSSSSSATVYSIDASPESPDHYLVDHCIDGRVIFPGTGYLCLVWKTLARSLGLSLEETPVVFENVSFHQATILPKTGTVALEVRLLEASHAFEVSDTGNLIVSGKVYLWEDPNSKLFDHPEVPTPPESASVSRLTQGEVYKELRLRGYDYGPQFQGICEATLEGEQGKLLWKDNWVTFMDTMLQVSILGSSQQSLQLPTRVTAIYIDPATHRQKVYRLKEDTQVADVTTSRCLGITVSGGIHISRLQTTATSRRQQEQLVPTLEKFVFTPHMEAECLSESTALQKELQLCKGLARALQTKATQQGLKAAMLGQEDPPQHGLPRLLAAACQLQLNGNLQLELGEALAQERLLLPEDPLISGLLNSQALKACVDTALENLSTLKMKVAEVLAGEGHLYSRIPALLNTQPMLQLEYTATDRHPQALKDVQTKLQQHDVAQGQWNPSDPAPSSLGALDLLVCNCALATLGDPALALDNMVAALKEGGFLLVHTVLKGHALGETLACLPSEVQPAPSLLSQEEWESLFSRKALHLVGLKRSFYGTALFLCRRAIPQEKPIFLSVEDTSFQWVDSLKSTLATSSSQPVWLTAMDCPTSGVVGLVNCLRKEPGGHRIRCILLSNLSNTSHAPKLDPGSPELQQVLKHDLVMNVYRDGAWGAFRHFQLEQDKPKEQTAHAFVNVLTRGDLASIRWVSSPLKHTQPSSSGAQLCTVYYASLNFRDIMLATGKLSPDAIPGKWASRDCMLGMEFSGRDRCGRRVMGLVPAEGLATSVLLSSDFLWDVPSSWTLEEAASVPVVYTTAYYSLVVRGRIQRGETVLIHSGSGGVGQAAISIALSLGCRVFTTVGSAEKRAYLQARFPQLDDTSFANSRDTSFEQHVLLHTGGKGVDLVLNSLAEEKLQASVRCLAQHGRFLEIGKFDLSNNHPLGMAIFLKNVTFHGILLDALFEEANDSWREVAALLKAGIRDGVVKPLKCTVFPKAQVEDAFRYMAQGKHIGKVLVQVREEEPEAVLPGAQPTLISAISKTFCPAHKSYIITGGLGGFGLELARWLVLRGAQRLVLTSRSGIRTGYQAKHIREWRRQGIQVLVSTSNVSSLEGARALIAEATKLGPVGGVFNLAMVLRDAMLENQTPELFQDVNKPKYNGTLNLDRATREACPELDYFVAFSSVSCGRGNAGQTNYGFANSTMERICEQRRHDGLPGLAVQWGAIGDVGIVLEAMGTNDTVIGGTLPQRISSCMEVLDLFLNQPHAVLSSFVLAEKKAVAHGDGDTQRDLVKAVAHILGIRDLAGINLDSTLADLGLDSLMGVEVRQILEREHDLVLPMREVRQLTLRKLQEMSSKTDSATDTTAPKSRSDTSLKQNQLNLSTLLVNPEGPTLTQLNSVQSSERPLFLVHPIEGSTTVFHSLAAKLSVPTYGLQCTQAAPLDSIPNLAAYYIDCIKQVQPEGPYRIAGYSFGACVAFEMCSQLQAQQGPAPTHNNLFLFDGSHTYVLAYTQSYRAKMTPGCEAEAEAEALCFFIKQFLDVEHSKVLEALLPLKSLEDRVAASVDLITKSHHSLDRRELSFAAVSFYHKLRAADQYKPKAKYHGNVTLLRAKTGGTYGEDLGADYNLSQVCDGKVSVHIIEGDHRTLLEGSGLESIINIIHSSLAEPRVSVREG

On to `CCC(=O)N[C@H]1CC[C@@H](C(=O)N(C)c2ccc(-c3ccccc3)cc2)C1`, for which, in assay [1], the Activity worked out at 76.8%. On the same count and under the same terms, the same measure for `CCCC(=O)N[C@H]1CC[C@@H](C(=O)N(C)c2ccc(-c3nc4ccccc4o3)cc2)C1`: 81%. As to `CCC(=O)N[C@H]1CC[C@@H](C(=O)N(C)c2ccc(-c3nc4ccccc4n3C)cc2)C1`, the Activity in assay [1] stood at 85.7%. Consider `CN(C)CCCCCC(=O)N[C@H]1CC[C@@H](C(=O)N(C)c2ccc(-c3nc4ccccc4o3)cc2)C1`, for which, in assay [2], the IC50 fell in the range of 500 to 3000 nM.

For `CCC(=O)N[C@H]1CC[C@@H](C(=O)N(C)c2ccc(-c3nc4ccccc4[nH]3)cc2)C1`, the Activity in assay [1] came out at 80.8%. `CC(=O)N[C@H]1CC[C@@H](C(=O)N(C)c2ccc(-c3nc4ccccc4o3)cc2)C1`: the Activity in assay [1] is 81.7%. In the case of `CCC(=O)N[C@H]1CC[C@@H](C(=O)N(C)c2ccc(-c3nc4ccccc4o3)cc2)C1`, the Activity in assay [1] was found to be 64.1%. In the case of `C/C=C/C/C=C/CCC(=O)[C@H]1O[C@H]1C(N)=O`, the Activity in assay [3] stood at 73.3%.
